Reference: patent US8334316B2, “Substituted organosulfur compounds and methods of using thereof” (ACEA Biosciences, Inc., priority 2004, dated 2012)
pIC50: −log10 of the molar value. “Also recorded” adds a separate entry of the source.

Experiments:
Assay type in all cases: cell-based
[1] = tested on: H460 (human non small cell lung cancer cell line); test: MTT assay IC50 (48 h), H460; conditions: NCI-H460, H460, 48 hours
Description: (§1) In another assay format, a test compound is assayed for its cytotoxicity and/or cytostatic effect on certain cancer cell types, using endpoint assay methods. Cells in the NCI cancer cell panel may be used. Cells after a pre-incubation for certain length of time (for example, 8 hrs or 24 hrs) are incubated with a test compound at serially-diluted concentrations (for example, five 10-fold dilutions) for 24 hrs and/or 48 hrs, and/or other specific length of time. The dose dependent cytotoxicity and/or cytostatic effects of test compounds can then be tested and evaluated using the 3-(4,5-dimethylthiazol-2-yl)-2,5-diphenyltetrazolium bromide (MTT) assay method, as described by, for example, Boyd (In Principle of Practice of Oncology, Devita, J. T., Hellman, S. and Rosenberg S. A. (Eds), 1989, Vol, 3, PPO Update, No. 10).
(§2) The anticancer potency of DBTS and its derivatives were tested in 8 different types of human cancer cell lines using the RT-CES system and MTT assay. The 8 cancer cell lines were HT1080 (the human fibrosarcoma cell line), H460 (human non small cell lung cancer cell line), OVCAR4 (the human ovarian cancer cell line), MCF7 (human breast cancer cell line) MDA-MB231 (M231, the human breast cancer cell line) A2780 (the human […] cancer cell line) Jurkat (the human T cell leukemia cell line). The test DBTS derivatives include ACEA100107, ACEA100108, ACEA100109, ACEA100111, ACEA100115, ACEA100116, ACEA100117, ACEA100118, ACEA100119, and ACEA100120.
(§3) For the MTT assay, the cells were seeded into the regular 96× well plates at the cell seeding density ranging from 5000 cells/well to 15,000 cells/well. The cells were incubated at 5% CO2 and 37° C. for overnight. The derivatives were serially diluted and added to the cells. The treatment was terminated after 48 hours of incubation by adding MTT staining reagent. After 4 hours, the staining was stopped by the stop buffer and then the calorimetric measurement was carried out on a microtiter plate reader at dual wave length, 650 nm and 550 nm.

[2] = tested on: HT1080 (human fibrosarcoma cell line); test: MTT assay IC50 (48 h), HT1080; conditions: HT-1080, HT1080, 48 hours
Description: as §1, §2, §3

[3] = tested on: HepG2 cells (human hepatosarcoma); test: RT-CES system cell proliferation/cytotoxicity, HepG2; conditions: for IC50: Homo sapiens, HepG2, time point of maximum inhibition
Source text: The RT-CES system comprises three components, an electronic sensor analyzer, a device station and 16× or 96× microtiter plate devices. Microelectrode sensor array was fabricated on glass slides with lithographical microfabrication methods and the electrode-containing slides are assembled to plastic trays to form electrode-containing wells. Each 16× (or 96×) microtiter plate device used in RT-CES system comprises up to 16 (or 96) such electrode-containing wells. The device station receives the 16× or 96× microtiter plate devices and is capable of electronically switching any one of the wells to the sensor analyzer for impedance measurement. In operation, the devices with cells cultured in the wells are placed into a device station that is located inside an incubator. Electrical cables connect the device station to the sensor analyzer. Under the RT-CES software control, the sensor analyzer can automatically select wells to be measured and continuously conduct impedance measurements. The impedance data from the analyzer is transferred to a computer, analyzed and processed by the integrated software.
To quantify cell status based on the measured cell-electrode impedance, a parameter termed Cell Index is derived, according to
[formula] where Rb(f) and Rcell(f) are the frequency dependent electrode resistances (a component of impedance) without cells or with cell present, respectively. N is the number of the frequency points at which the impedance is measured. Thus, Cell Index is a quantitative measure of the status of the cells in an electrode-containing well. Under the same physiological conditions, more cells attached on to the electrodes leads to larger Rcell(f) value, leading to a larger value for Cell Index. Furthermore, for the same number of cells present in the well, a change in the cell status such as morphology will lead to a change in the Cell Index. For example, an increase in cell adhesion or cell spreading leads to larger cell-electrode contact area which will lead to an increase in Rcell(f) and thus a larger value for Cell Index. The Cell Index may also be calculated using a formula different from the one described here. Other methods for calculating the Cell Index based on impedance measurement can be found in PCT application number PCT/US04/37696, fined on Nov. 12, 2004, PCT application number PCT/US05/04481, filed on Feb. 9, 2005, U.S. patent application Ser. No. 10/987,732, filed on Nov. 12, 2004, and U.S. patent application Ser. No. 11/055,639, filed on Feb. 9, 2005.
Different types of human cancer cells, including NCI-H460 (non-small cell lung cancer cells), MV522 SW (non-small cell lung cancer cells), MCF7 (breast cancer cells), A549 (non-small cell lung cancer cells), PC3 (prostate cancer cells), A431 (epidermoid cancer cells), HT1080 (fibrosarcoma cells), MDA.MB2321 (breast cancer cells), HT29 (colon cancer cells), HCC2998 (colon cancer cells), OVCAR4 (ovarian cancer cells), A2780 (ovarian cancer cells) and HepG2 (human hepatosarcoma) with different numbers (4000 to 20,000 per well) were seeded into 16× or 96× microtiter device and monitored by RT-CES™ system. The cells were allowed to grow for about 24 hours prior to the addition of dibenzyl trisulfide dissolved in DMSO solution (final DMSO concentration: 0.2%; final dibenzyl trisulfide concentration: between 1.5625 μM and 100 μM). The cell-electrode impedance was continuously measured and the corresponding, time dependent cell-index values were derived and recorded.
HepG2 cells (human hepatosarcoma cells) were seeded into wells of 16× or 96× microtiter plate devices (electronic plates, i.e., the plates comprise microelectrode sensor arrays in the wells of the plate) with an initial seeding density of 15,000 cells per well and were pre-incubated in incubator under standard cell culture conditions for about 22 hrs. Dibenzyl trisulfide solution in DMSO was added into wells following the incubation period. […]

Q: `FC(F)(F)c1cccc(CSSSCc2cccc(C(F)(F)F)c2)c1` [ACEA100117, Di(m-trifluoromethylbenzyl)trisulfide] was tested. Which pIC50 [1] did it give?
A: < 4.30

Q: And the pIC50 [2]?
A: 4.32

Q: And the IC50 [3]?
A: > 50 µM

Q: `Clc1ccccc1CSSSCc1ccccc1Cl` [ACEA100115, Di(o-chlorobenzyl)trisulfide] was tested. Which pIC50 [1] did it give?
A: 4.93

Q: What about the pIC50 [2] of the same molecule?
A: 4.91

Q: What about the IC50 [3] of the same molecule?
A: > 50 µM

Q: How did the pIC50 [1] turn out when `Fc1ccc(CSSSCc2ccc(F)cc2)cc1` [ACEA100108, Di(p-fluorobenzyl)trisulfide] was run?
A: 4.99

Q: And the pIC50 [2]?
A: 4.72

Q: What about the IC50 [3] of the same molecule?
A: > 50 µM

Q: With `c1ccc(CSSSCc2ccccc2)cc1` [DBTS, Dibenzyl trisulfide] as the molecule, how does the pIC50 [1] read?
A: 4.85

Q: And the pIC50 [2]?
A: 5.59

Q: And the IC50 [3]?
A: > 50 µM

Q: What about the “Effect on HepG2 cell proliferation (cell index)” value ([3]; within the exposing dose range (1.5625-100 μM)) of the same molecule?
A: did not demonstrate anti-proliferation ability; also recorded: exhibits no inhibition effect on HepG2 cell proliferation and no cytotoxic effect

Q: How did the pIC50 [1] turn out when `Cc1cccc(CSSSCc2cccc(C)c2)c1` [ACEA100116, di(m-methylbenzyl)trisulfide] was run?
A: 5.27

Q: And the pIC50 [2]?
A: 5.66

Q: And the IC50 [3]?
A: > 50 µM

Q: What does the source list for `Clc1ccc(CSSSCc2ccc(Cl)cc2)cc1` [ACEA100118, Di(p-chlorobenzyl)trisulfide]?
A: pIC50 [1]: 5.10; pIC50 [2]: 5.94; IC50 [3]: > 50 µM
